Measured values from patent US11021444B2, “Antiviral compounds” (priority 2013, dated 2021).
Read-outs that look alike come from different tables or passages of the source.

How the values were obtained:
recombinant RSV complex = recombinant RSV complex (Human respiratory syncytial virus A, UniProt P28887); experiment: RSV Polymerase Inhibition Assay; format: biochemical
In short: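 10 nM recombinant RSV polymerase complex in Tris-HCl pH 7.5, 6 mM MgCl2 with RNA oligonucleotide template and radionucleotides, incubated 2 h at 30 °C with increasing inhibitor concentrations. Reaction stopped with EDTA; radiolabeled RNA product counted by scintillation.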

[1] = system: Respiratory Syncytial Virus (RSV) long strain; experiment: microbe, parasite or virus in culture; format: cell-based; conditions: human respiratory syncytial virus, Tables A and B list compounds by EC50 band
In short: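 HEp-2 cells infected with 100 TCID50 virus per well, compounds in duplicate, 9-point 1/3 dilutions from 100 μM or 1 μM, 1% DMSO. After 5 days at 37 °C, cell viability (CPE protection) read by CCK-8 absorbance at 450 nm, 630 nm background.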

[2] = Cytotoxicity Determination (CCK-8, without addition of virus); format: cell-based; conditions: human, 50% cytotoxicity concentration (CC50)
In short: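 HEp-2 cells were seeded at 1,500 cells/well one day before compound addition. Compounds were tested without virus in duplicate over 7 points from 100 μM in 1/2 steps, with 1% final DMSO, 5 days at 37 °C, 5% CO2. Viability was read by CCK-8 after 3-4 hours.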

[3] = HEp-2, 120 h, read-out: 50% effective concentration (EC50), HEp-2 cells infected with RSV long strain, 5 days, CCK-8 readout
[4] = 120 h, read-out: 50% effective concentration (EC50), HEp-2 cells infected with RSV long strain, 5 days, CCK-8 readout

recombinant RSV complex, sequence (P28887 whole entry): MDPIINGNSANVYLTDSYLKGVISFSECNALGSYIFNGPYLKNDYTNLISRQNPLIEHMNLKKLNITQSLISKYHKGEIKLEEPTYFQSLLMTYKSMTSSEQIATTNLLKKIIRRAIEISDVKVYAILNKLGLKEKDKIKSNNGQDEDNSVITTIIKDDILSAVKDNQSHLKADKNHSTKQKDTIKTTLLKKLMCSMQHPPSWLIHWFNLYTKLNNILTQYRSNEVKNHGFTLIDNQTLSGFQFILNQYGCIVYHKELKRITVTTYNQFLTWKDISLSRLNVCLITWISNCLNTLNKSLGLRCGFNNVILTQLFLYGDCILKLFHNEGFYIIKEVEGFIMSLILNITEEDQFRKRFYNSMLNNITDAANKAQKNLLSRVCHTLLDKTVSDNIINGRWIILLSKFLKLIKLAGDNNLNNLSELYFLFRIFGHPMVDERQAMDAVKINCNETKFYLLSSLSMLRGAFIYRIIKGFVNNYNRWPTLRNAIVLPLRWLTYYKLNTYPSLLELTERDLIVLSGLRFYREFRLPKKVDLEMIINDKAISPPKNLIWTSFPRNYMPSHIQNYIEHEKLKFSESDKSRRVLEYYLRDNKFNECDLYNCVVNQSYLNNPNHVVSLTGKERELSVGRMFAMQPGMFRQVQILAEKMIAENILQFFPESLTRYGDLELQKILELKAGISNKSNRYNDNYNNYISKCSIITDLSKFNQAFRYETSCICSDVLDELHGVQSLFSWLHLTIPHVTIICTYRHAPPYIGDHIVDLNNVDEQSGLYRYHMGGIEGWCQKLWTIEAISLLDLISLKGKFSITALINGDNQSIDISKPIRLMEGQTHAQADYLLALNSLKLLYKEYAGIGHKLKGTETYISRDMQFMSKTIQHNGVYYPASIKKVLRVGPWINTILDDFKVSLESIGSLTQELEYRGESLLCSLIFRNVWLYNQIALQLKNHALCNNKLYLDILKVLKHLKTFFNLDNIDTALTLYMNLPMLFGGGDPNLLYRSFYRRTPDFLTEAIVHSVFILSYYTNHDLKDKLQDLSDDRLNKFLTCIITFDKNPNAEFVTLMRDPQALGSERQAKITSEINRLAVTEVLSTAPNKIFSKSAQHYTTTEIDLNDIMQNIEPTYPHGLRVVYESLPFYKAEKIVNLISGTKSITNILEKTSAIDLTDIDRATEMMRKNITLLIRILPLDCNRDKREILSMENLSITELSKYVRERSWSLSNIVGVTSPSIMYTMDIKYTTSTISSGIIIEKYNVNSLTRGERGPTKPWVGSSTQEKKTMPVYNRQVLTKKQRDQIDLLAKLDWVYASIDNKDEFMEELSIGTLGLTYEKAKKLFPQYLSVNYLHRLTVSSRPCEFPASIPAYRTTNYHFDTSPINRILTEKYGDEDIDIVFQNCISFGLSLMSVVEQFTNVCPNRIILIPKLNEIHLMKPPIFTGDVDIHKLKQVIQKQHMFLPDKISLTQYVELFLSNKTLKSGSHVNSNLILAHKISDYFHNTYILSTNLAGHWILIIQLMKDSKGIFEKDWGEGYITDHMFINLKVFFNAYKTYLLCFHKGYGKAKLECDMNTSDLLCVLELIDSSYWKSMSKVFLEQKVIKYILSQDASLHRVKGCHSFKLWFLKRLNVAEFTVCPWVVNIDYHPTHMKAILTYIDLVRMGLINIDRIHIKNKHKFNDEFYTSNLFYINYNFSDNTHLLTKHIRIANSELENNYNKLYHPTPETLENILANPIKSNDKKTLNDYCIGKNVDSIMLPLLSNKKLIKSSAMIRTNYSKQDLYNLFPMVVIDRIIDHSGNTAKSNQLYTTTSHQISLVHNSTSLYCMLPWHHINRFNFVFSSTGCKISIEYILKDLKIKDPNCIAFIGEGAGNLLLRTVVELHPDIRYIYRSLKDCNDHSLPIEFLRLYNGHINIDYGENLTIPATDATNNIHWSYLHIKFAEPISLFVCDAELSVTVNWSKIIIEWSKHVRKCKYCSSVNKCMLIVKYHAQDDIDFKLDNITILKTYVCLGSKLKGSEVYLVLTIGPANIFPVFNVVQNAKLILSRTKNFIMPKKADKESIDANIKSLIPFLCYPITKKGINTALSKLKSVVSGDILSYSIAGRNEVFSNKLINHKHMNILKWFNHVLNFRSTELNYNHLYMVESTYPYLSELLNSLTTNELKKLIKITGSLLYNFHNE
recombinant RSV complex, sequence (P03421 whole entry, further chain): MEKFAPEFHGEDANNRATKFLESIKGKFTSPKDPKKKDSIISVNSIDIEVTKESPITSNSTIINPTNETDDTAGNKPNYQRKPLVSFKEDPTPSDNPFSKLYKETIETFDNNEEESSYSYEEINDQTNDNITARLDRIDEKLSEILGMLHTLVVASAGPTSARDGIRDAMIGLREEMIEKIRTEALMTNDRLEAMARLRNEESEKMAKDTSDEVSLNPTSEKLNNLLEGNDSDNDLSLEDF

SMILES	IC50 (recombinant RSV complex)	EC50 [1, 3]	CC50 at 5 days [2]	EC50 [1, 4]
COc1cc(C(=O)NCC(O)(c2cc3c(c(-c4ccc(Cl)c(Cl)c4)n2)OCC3(C)N)C(F)(F)F)ccc1OCCO (stereo not drawn) [Compound 662]	< 1 µM	< 1 µM	10 to 100 µM	
COc1cc(C(=O)NCC(C)(O)c2cc3cc[nH]c3c(-c3ccc(F)c(Cl)c3)n2)ccc1OCCF (single isomer, unassigned) [Compound 296]	< 10 µM	< 1 µM	10 to 100 µM	
COc1cc(C(=O)NC[C@](O)(c2cc3c(c(-c4ccc(F)cc4)n2)OCC3(N)CO)C(F)(F)F)ccc1OC1CC1 (stereo partly drawn) [Compound 654]	< 1 µM	< 1 µM	10 to 100 µM	
COc1cc(C(=O)NCC(O)(CN2CCCC2)c2ccc(OC)c(-c3ccc(F)c(Cl)c3)n2)ccc1OCCO (stereo not drawn) [Compound 187]	< 10 µM	1 to 50 µM	> 100 µM	
COc1cc(C(=O)NCC(C)(O)c2cc3c(c(-c4ccc(F)c(Cl)c4)n2)OCC3(C)O)ccc1OC1CC1 (stereo not drawn) [Compound 475]	< 1 µM	< 1 µM	10 to 100 µM	
COc1ccc(C(O)(CNC(=O)c2ccc(OCCO)c(Cl)c2)C(F)(F)F)nc1-c1ccc(F)c(Cl)c1 (stereo not drawn) [Compound 262]	< 1 µM	< 1 µM	10 to 100 µM	
COc1cc(C(=O)NC[C@](O)(c2cc3c(c(-c4ccc(F)cc4)n2)OC[C@@]3(C)N)C(F)(F)F)ccc1OC[C@@H](C)O [Compound 632]	< 1 µM	< 1 µM	10 to 100 µM	
COCc1ccc(C(=O)NCC(C)(O)c2ccc(OC)c(-c3ccc(F)c(Cl)c3)n2)cc1OC (stereo not drawn) [Compound 114]	< 10 µM	1 to 50 µM	10 to 100 µM	
COc1cc(C(=O)NC[C@@](O)(c2cc(C(C)(C)N)cc(-c3ccc(F)c(Cl)c3)n2)C(F)(F)F)ccc1OCCO [Compound 549]	< 1 µM	1 to 50 µM	10 to 100 µM	
COc1cc(C(=O)NCC(F)(CF)c2ccc(OC)c(-c3ccc(F)c(Cl)c3)n2)ccc1OCCO (stereo not drawn) [Compound 435]	< 1 µM	< 1 µM	10 to 100 µM	
COc1cc(C(=O)NCC(O)(CN2CCOCC2)c2ccc(OC)c(-c3ccc(F)c(Cl)c3)n2)ccc1OCCO (stereo not drawn) [Compound 181]	< 1 µM	< 1 µM	> 100 µM	
COc1cc(C(=O)NCC(=O)c2cc3c(c(-c4ccc(F)c(Cl)c4)n2)OCC3)ccc1OCCF [Compound 135]	< 100 µM	< 1 µM	> 100 µM	
COc1cc(C(=O)NCC(O)(c2ccc(OC)c(-c3ccc(F)c(Cl)c3)n2)C2CNC2)ccc1OC1CC1 (stereo not drawn) [Compound 463]	< 1 µM	1 to 50 µM	10 to 100 µM	
COc1cc(C(=O)NCC(O)(c2cc(C(C)(C)N)cc(-c3ccc(F)c(Cl)c3)n2)C(F)(F)F)ccc1NS(C)(=O)=O (stereo not drawn) [Compound 593]	< 1 µM	< 1 µM	10 to 100 µM	
Cc1ncc(C(=O)NCC(O)(c2cc(C(C)(C)N)cc(-c3ccc(F)cc3)n2)C(F)(F)F)[nH]1 (stereo not drawn) [Compound 609]	< 10 µM	1 to 50 µM	10 to 100 µM	
COc1ccc(C(C)(O)CNC(=O)c2ccc(-c3nc(C)no3)cc2)nc1-c1ccc(F)c(Cl)c1 (stereo not drawn) [Compound 175]	< 10 µM	1 to 50 µM	> 100 µM	
COc1cc(C(=O)NCC(=O)c2cc3c(c(-c4ccc(F)c(Cl)c4)n2)OCC3(C)C)ccc1OC1CCN(C)C1=O (stereo not drawn) [Compound 222]	< 1 µM	< 1 µM	10 to 100 µM	
COc1cc(C(=O)NCC(O)(CO)c2cc3c(c(-c4ccc(F)c(Cl)c4)n2)OCC3(C)C)cc2cccnc12 (stereo not drawn) [Compound 221]	< 1 µM	< 1 µM	10 to 100 µM	
CC(C)(N)c1cc(-c2ccc(F)cc2)nc(C(O)(CNC(=O)c2ccc3oc(=O)[nH]c3c2)C(F)(F)F)c1 (stereo not drawn) [Compound 610]	< 1 µM		10 to 100 µM	< 1 µM

SMILES	IC50 (recombinant RSV complex)	EC50 [1, 3]	CC50 at 5 days [2]	EC50 [1, 4]
COc1cc(C(=O)NCC(N)(CF)c2ccc(OC)c(-c3ccc(F)c(Cl)c3)n2)ccc1OC1CC1 (stereo not drawn) [Compound 518]	< 1 µM	< 1 µM	10 to 100 µM	
COc1ccc(C(O)(CNC(=O)c2ccc3ncsc3c2)C(F)(F)F)nc1-c1ccc(F)c(Cl)c1 (stereo not drawn) [Compound 254]	< 1 µM	1 to 50 µM	10 to 100 µM	
COc1cc(C(=O)NCC(N)(c2ccc(OC)c(-c3ccc(F)c(Cl)c3)n2)C(F)F)ccc1OC1CC1 (stereo not drawn) [Compound 517]	< 1 µM	< 1 µM	10 to 100 µM	
CC1(N)COc2c1cc(C(O)(CNC(=O)c1ccc(OCCO)c(F)c1)C(F)(F)F)nc2-c1ccc(F)cc1 (stereo not drawn) [Compound 476]	< 1 µM	< 1 µM	10 to 100 µM	
COc1cc(C(=O)NCC(O)(c2cc3c(c(-c4ccc(F)c(Cl)c4)n2)OCC3(C)N[S+]([O-])C(C)(C)C)C(F)(F)F)ccc1OC1CC1 (stereo not drawn) [Compound 482]	< 1 µM	< 1 µM	10 to 100 µM	
CC(C)(N)c1cc(-c2ccc(F)cc2)nc(C(O)(CNC(=O)c2ccc3c(c2)NC(=O)C3)C(F)(F)F)c1 (stereo not drawn) [Compound 570]	< 1 µM		10 to 100 µM	< 1 µM
COc1cc(C(=O)NCC(=O)c2cc3c(c(-c4ccc(F)c(Cl)c4)n2)OCC3(C)C)ccc1OC1CCNC1=O (stereo not drawn) [Compound 217]	< 1 µM	< 1 µM	10 to 100 µM	
CNCC(O)(CNC(=O)c1ccc(OCCO)c(OC)c1)c1ccc(OC)c(-c2ccc(F)c(Cl)c2)n1 (stereo not drawn) [Compound 177]	< 10 µM	1 to 50 µM	> 100 µM	
COc1ccc(C(O)(CNC(=O)c2ccc3ncccc3c2)C(F)(F)F)nc1-c1ccc(F)c(Cl)c1 (stereo not drawn) [Compound 252]	< 1 µM	1 to 50 µM	10 to 100 µM	
CCc1cc(-c2ccc(F)cc2)nc(C(C)(O)CNC(=O)c2ccc(OCCO)c(OC)c2)c1 (stereo not drawn) [Compound 353]	< 1 µM	< 1 µM	> 100 µM	
COc1cc(C(=O)NCC(O)(c2cc(C(N)=O)cc(-c3ccc(F)c(Cl)c3)n2)C(F)(F)F)ccc1OC1CC1 (stereo not drawn) [Compound 464]	< 1 µM	< 1 µM	10 to 100 µM	
COc1cc(C(=O)NCC(O)(c2cc(C(C)(C)N)cc(-c3ccc(F)c(Cl)c3)n2)C(F)(F)F)ccc1NC(C)=O (stereo not drawn) [Compound 592]	< 10 µM	< 1 µM	10 to 100 µM	
COc1cc(C(=O)NCC(C)(O)c2cc(CO)cc(-c3ccc(F)c(Cl)c3)n2)ccc1OCC1CC1 (stereo not drawn) [Compound 101]	< 1 µM	< 1 µM	10 to 100 µM	
COc1cc(C(=O)NCC(O)(CN)c2ccc(OC)c(-c3ccc(F)c(Cl)c3)n2)ccc1OCCO (stereo not drawn) [Compound 179]	< 1 µM	1 to 50 µM	> 100 µM	
COc1cc(C(=O)NCC(C)(O)c2ccc(OC)c(-c3ccc(F)c(Br)c3)n2)ccc1OCCO (stereo not drawn) [Compound 167]	< 1 µM	< 1 µM	10 to 100 µM	
COc1cc(C(=O)NCC(=O)c2cc3c(c(-c4ccc(F)c(Cl)c4)n2)OCC3C)ccc1OCCO (stereo not drawn) [Compound 305]	< 1 µM	< 1 µM	10 to 100 µM	
COc1cc(C(=O)NCC(O)(c2cc(C(C)(N)CO)cc(-c3ccc(F)cc3)n2)C(F)(F)F)ccc1OCCO (stereo not drawn) [Compound 484]	< 10 µM	1 to 50 µM	> 100 µM	
COc1cc(C(=O)NCC(O)(c2ccc(OC)c(-c3ccc(F)c(Cl)c3)n2)C(F)(F)F)ccc1OCC1(O)CC1 (stereo not drawn) [Compound 270]	< 1 µM		10 to 100 µM	< 1 µM
